Measured values reported in PubChem BioAssay (NCI).
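Step 1: Grow cells in 96-well plates. Step 2: Expose to compound for 48 hours at 5 concentrations. Step 3: Interpolate endpoints linearly; if unreached, use highest concentration. GI50: concentration for 50% inhibition of growth. Definition used: TGI = concentration required for complete inhibition of growth.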

What was measured:
Assay in all cases: growth of human tumour cells (NCI), 48 h
SK-MEL-28 melanoma = tested on: SK-MEL-28 melanoma
DU-145 prostate = tested on: DU-145 prostate
SW-620 colon = tested on: SW-620 colon
NCI-H522 lung = tested on: NCI-H522 lung
COLO 205 colon = tested on: COLO 205 colon
HS 578T breast = tested on: HS 578T breast
OVCAR-8 ovarian = tested on: OVCAR-8 ovarian
SF-539 CNS = tested on: SF-539 CNS
UO-31 renal = tested on: UO-31 renal
LOX IMVI melanoma = tested on: LOX IMVI melanoma
K-562 leukemia = tested on: K-562 leukemia
A498 renal = tested on: A498 renal
HL-60(TB) leukemia = tested on: HL-60(TB) leukemia
MDA-MB-435 = tested on: MDA-MB-435
NCI-H460 lung = tested on: NCI-H460 lung
OVCAR-3 ovarian = tested on: OVCAR-3 ovarian
SK-MEL-2 melanoma = tested on: SK-MEL-2 melanoma
A549 NSCLC = tested on: A549 NSCLC
786-0 renal = tested on: 786-0 renal
KM12 colon = tested on: KM12 colon
MCF7 breast = tested on: MCF7 breast
RPMI-8226 leukemia = tested on: RPMI-8226 leukemia
IGROV1 ovarian = tested on: IGROV1 ovarian
SN12C renal = tested on: SN12C renal
BT-549 breast = tested on: BT-549 breast
HOP-92 NSCLC = tested on: HOP-92 NSCLC
SK-OV-3 ovarian = tested on: SK-OV-3 ovarian
PC-3 prostate = tested on: PC-3 prostate
CCRF-CEM leukemia = tested on: CCRF-CEM leukemia
SF-295 CNS = tested on: SF-295 CNS
U251 CNS = tested on: U251 CNS
HCT-15 colon = tested on: HCT-15 colon
HOP-62 NSCLC = tested on: HOP-62 NSCLC
MDA-MB-231 breast = tested on: MDA-MB-231 breast
NCI-H23 lung = tested on: NCI-H23 lung
ACHN renal = tested on: ACHN renal
T-47D breast = tested on: T-47D breast
SF-268 CNS = tested on: SF-268 CNS
RXF 393 renal = tested on: RXF 393 renal
TK-10 renal = tested on: TK-10 renal
UACC-62 melanoma = tested on: UACC-62 melanoma
HT29 colon = tested on: HT29 colon
SNB-19 CNS = tested on: SNB-19 CNS
M14 melanoma = tested on: M14 melanoma
UACC-257 melanoma = tested on: UACC-257 melanoma
CAKI-1 renal = tested on: CAKI-1 renal
NCI/ADR-RES ovarian = tested on: NCI/ADR-RES ovarian
SK-MEL-5 melanoma = tested on: SK-MEL-5 melanoma
HCC-2998 colon = tested on: HCC-2998 colon
HCT-116 colon = tested on: HCT-116 colon
SR leukemia = tested on: SR leukemia
OVCAR-5 ovarian = tested on: OVCAR-5 ovarian
EKVX NSCLC = tested on: EKVX NSCLC
MOLT-4 leukemia = tested on: MOLT-4 leukemia

## CN(C)CCC(=O)NCc1c2nc3ccccc3nc2n2ccccc12
SK-MEL-28 melanoma
  GI50: 83.9 µM
  TGI: > 100 µM
DU-145 prostate
  GI50: 12.3 µM
  TGI: > 100 µM
SW-620 colon
  GI50: 58.7 µM
  TGI: > 100 µM
NCI-H522 lung
  GI50: 66.1 µM
  TGI: > 100 µM
COLO 205 colon
  GI50: 73.3 µM
  TGI: > 100 µM
HS 578T breast
  GI50: > 100 µM
  TGI: > 100 µM
OVCAR-8 ovarian
  GI50: 84.8 µM
  TGI: > 100 µM
SF-539 CNS
  GI50: 21.9 µM
  TGI: 43.2 µM
UO-31 renal
  GI50: 20.7 µM
  TGI: > 100 µM
LOX IMVI melanoma
  GI50: 21 µM
  TGI: 40.4 µM
K-562 leukemia
  GI50: > 100 µM
  TGI: > 100 µM
A498 renal
  GI50: 22 µM
  TGI: 88.1 µM
HL-60(TB) leukemia
  GI50: 58.1 µM
  TGI: > 100 µM
MDA-MB-435
  GI50: 67.8 µM
  TGI: > 100 µM
NCI-H460 lung
  GI50: 42.5 µM
  TGI: > 100 µM
OVCAR-3 ovarian
  GI50: > 100 µM
  TGI: > 100 µM
SK-MEL-2 melanoma
  GI50: 48.1 µM
  TGI: > 100 µM
A549 NSCLC
  GI50: > 100 µM
  TGI: > 100 µM
786-0 renal
  GI50: 19 µM
  TGI: 45.9 µM
KM12 colon
  GI50: 26 µM
  TGI: > 100 µM
MCF7 breast
  GI50: 17.4 µM
  TGI: > 100 µM
RPMI-8226 leukemia
  GI50: 18.5 µM
  TGI: > 100 µM
IGROV1 ovarian
  GI50: 0.338 µM
  TGI: 28.4 µM
SN12C renal
  GI50: 68 µM
  TGI: > 100 µM
BT-549 breast
  GI50: 23.3 µM
  TGI: 60.8 µM
HOP-92 NSCLC
  GI50: 34.6 µM
  TGI: > 100 µM
SK-OV-3 ovarian
  GI50: > 100 µM
  TGI: > 100 µM
PC-3 prostate
  GI50: 33.5 µM
  TGI: > 100 µM
CCRF-CEM leukemia
  GI50: 25.7 µM
  TGI: 78.8 µM
SF-295 CNS
  GI50: 61.1 µM
  TGI: > 100 µM
U251 CNS
  GI50: > 100 µM
  TGI: > 100 µM
HCT-15 colon
  GI50: 48.4 µM
  TGI: > 100 µM
HOP-62 NSCLC
  GI50: 24 µM
  TGI: > 100 µM
MDA-MB-231 breast
  GI50: 24.7 µM
  TGI: > 100 µM
NCI-H23 lung
  GI50: 65.6 µM
  TGI: > 100 µM
ACHN renal
  GI50: > 100 µM
  TGI: > 100 µM
T-47D breast
  GI50: > 100 µM
  TGI: > 100 µM
SF-268 CNS
  GI50: 41.5 µM
  TGI: > 100 µM
RXF 393 renal
  GI50: 54.8 µM
  TGI: > 100 µM
TK-10 renal
  GI50: 16 µM
  TGI: 47.6 µM
UACC-62 melanoma
  GI50: > 100 µM
  TGI: > 100 µM
HT29 colon
  GI50: 35.9 µM
  TGI: > 100 µM
SNB-19 CNS
  GI50: 52.9 µM
  TGI: > 100 µM
M14 melanoma
  GI50: 26.3 µM
  TGI: 69.5 µM
UACC-257 melanoma
  GI50: 73.1 µM
  TGI: > 100 µM
CAKI-1 renal
  GI50: 60.6 µM
  TGI: > 100 µM
NCI/ADR-RES ovarian
  GI50: 47.2 µM
  TGI: > 100 µM
SK-MEL-5 melanoma
  GI50: 16.8 µM
  TGI: 52.8 µM
HCC-2998 colon
  GI50: 33.8 µM
  TGI: > 100 µM
HCT-116 colon
  GI50: 21 µM
  TGI: 59.7 µM
SR leukemia
  GI50: 16.9 µM
  TGI: 41.8 µM
OVCAR-5 ovarian
  GI50: > 100 µM
  TGI: > 100 µM
EKVX NSCLC
  GI50: 43.1 µM
  TGI: > 100 µM
MOLT-4 leukemia
  GI50: 38.8 µM
  TGI: > 100 µM
